# Experiments:
# Experiment in all cases: HIV-1 RT Assay
# [1] = biological target: T1, Gag-Pol polyprotein [588-1127,L687I]/[588-1147,L687I] (Human immunodeficiency virus 1, UniProt P04585, L687I)
# T1 construct: 588-1127; 588-1147
# [2] = biological target: T2, Gag-Pol polyprotein [588-1127,Y768C]/[588-1147,Y768C] (Human immunodeficiency virus 1, UniProt P04585, Y768C)
# T2 construct: 588-1127; 588-1147
# [3] = biological target: T3, Gag-Pol polyprotein [588-1027]/[588-1147] (Human immunodeficiency virus 1, UniProt P04585)
# T3 construct: 588-1027; 588-1147
Compound,IC50 [1],IC50 [2],also measured
"CNC(=O)c1ccc(F)c(CC/N=C(\S)Nc2ccc(Br)cn2)c1F [3-(2-{[(5-bromopyridin-2-yl)carbamothioyl]amino}ethyl)-2,4-difluoro-N-methylbenzamide]",,,"IC50 ([1]; pH 7.8, 37 °C): > 2000 nM; IC50 ([2]; pH 7.8, 37 °C): > 2000 nM"
"Cc1cc2nn(CCNC(=S)Nc3ccc(Br)cn3)nc2cc1C [1-(5-bromopyridin-2-yl)-3-[2-(5,6-dimethyl-2H-1,2,3-benzotriazol-2-yl)ethyl]thiourea]",> 2500 nM,100 nM,
S=C(NCCc1nc2ccccc2[nH]1)Nc1ccc(Br)cn1 [N-[2-(2-Benzimidazolyl)ethyl]-N-[2-(5-bromopyridyl)]-thiourea],> 2500 nM,1860 nM,IC50 [3]: 21 nM
"COCc1ccc(F)c(CCNC(=S)Nc2ccc(Br)cn2)c1F [1-(5-bromopyridin-2-yl)-3-{2-[2,6-difluoro-3-(methoxymethyl)phenyl]ethyl}thiourea]",,,"IC50 ([2]; pH 7.8, 37 °C): 100 nM"
"S=C(NCCn1nc2ccccc2n1)Nc1ccc(Br)cn1 [3-[2-(2H-1,2,3-benzotriazol-2-yl)ethyl]-1-(5-bromopyridin-2-yl)thiourea]",,100 nM,
"CC(=O)NCc1ccc(F)c(CCNC(=S)Nc2ccc(Br)cn2)c1F [N-[2-(3-(Acetamidomethyl)-2,6-difluorophenethyl)]-N-[2-(5-bromopyridyl)]thiourea]",,,"IC50 ([1]; pH 7.8, 37 °C): > 2000 nM; IC50 ([2]; pH 7.8, 37 °C): > 2000 nM"
"CCOc1ccc(F)c(CCNC(=S)Nc2ncc(C(F)(F)F)s2)c1Cl [1-[2-(2-chloro-3-ethoxy-6-fluorophenyl)ethyl]-3-[5-(trifluoromethyl)-1,3-thiazol-2-yl]thiourea]",7000 nM,7000 nM,IC50 [3]: 47 nM
COc1ccc2[nH]cc(CC/N=C(\S)Nc3ccc(Br)cn3)c2c1 [1-(5-bromopyridin-2-yl)-3-[2-(5-methoxy-1H-indol-3-yl)ethyl]thiourea],> 2500 nM,,
"CC(C)=CCN1Cc2cc(Cl)cc3[nH]c(=S)n(c23)C[C@@H]1C [(11S)-6-chloro-11-methyl-10-(3-methylbut-2-en-1-yl)-1,3,10-triazatricyclo[6.4.1.0^{4,13}]trideca-4,6,8(13)-triene-2-thione]",32200 nM,13000 nM,
S=C(NCCc1c[nH]c2ccccc12)Nc1ccc(Br)cn1 [1-(5-bromopyridin-2-yl)-3-[2-(1H-indol-3-yl)ethyl]thiourea],> 2500 nM,,
"CCOc1ccc(OCC)c(CCNC(=S)Nc2ccc(Br)cn2)c1 [1-(5-bromopyridin-2-yl)-3-[2-(2,5-diethoxyphenyl)ethyl]thiourea]",,,IC50 [3]: 18 nM
